Here are results for 34 molecules from PubChem BioAssay (NCI).

Assay in all cases: NCI anticancer screen, dose series, 48 h
Experiment [1] concerns DLD-1 colon.
Experiment [2] has as its system DMS 114 small cell lung.
Experiment [3] has as its system DMS 273 small cell lung.
Experiment [4] relates to HOP-18 NSCLC.
Experiment [5] concerns LXFL 529 NSCLC.
Experiment [6] has as its system M19-MEL melanoma.
Experiment [7] has as its system XF 498 CNS.
Experiment [8] has as its system RXF-631 renal.
The subject of experiment [9] is MDA-N.

Several values for one entry are separate records, joined by “and”; a condition that tells them apart may be missing. Identical values can stand only once.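 How tested: cells in 96-well plates exposed to compound for 48 hours at five concentrations. Abbreviation: GI50, concentration required for 50% inhibition of growth. TGI is the concentration that stops growth completely.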 Some results are limits rather than exact numbers.

On to `Cn1c(=O)nc2n(-c3cccc(Br)c3)c3ccccc3nc-2c1=O`, for which the TGI in experiment [1] was found to be 29.1 µM; in [2], 4.45 µM; in experiment [3], 14.7 µM; in [4] it was 19.4 µM; in experiment [5], 19.5 µM; in experiment [6], 3.03 µM. The same molecule came in with a TGI in experiment [7] of 15.8 µM.

As for `N#CC(C(=O)CCC(=O)C(C#N)c1ccccc1)c1ccccc1` (centres undefined), the TGI in experiment [1], in experiment [2], in [3], in [4], in [5] and in experiment [6] was > 100 µM in each case. The TGI in experiment [7] was > 100 µM.

`COC(=O)C(=O)OC1(C(C)=O)CC2(c3ccccc3)OC1(c1ccccc1)c1ccccc12` (centres undefined): the TGI was 36.4 µM in [1]; 32 µM in experiment [2]; 30 µM in experiment [3]; 84.5 µM in experiment [4]; 49.2 µM in experiment [5]; 31.1 µM in [6]. Besides, the TGI is > 100 µM in [8] and 30.5 µM in experiment [7].

With `CC(=O)[C@@]1(O)CC[C@H]2[C@@H]3C[C@H](C)C4=CC(=O)CC[C@]4(C)[C@H]3[C@@H](O)C[C@@]21C`, the TGI in experiment [9] is > 100000 nM.

Take `CC1(c2cccc3ccccc23)OC(=O)c2ccccc21` (centres undefined): the TGI in experiment [1] is 75.2 µM; in experiment [2] it was 38 µM; in [3] it was 28.6 µM; in experiment [5], > 100 µM; in experiment [6] it was 51.3 µM; in experiment [8] it was 70.7 µM. In [7], this molecule registered a TGI of 45.2 µM.

Take `CCCCCCCCCCCCCC(=O)CC(=O)c1c(O)cccc1O`: the TGI in experiment [1] was > 100 µM; in experiment [2], 47.1 µM; in experiment [3], 41.1 µM; in experiment [4], > 100 µM; in [5], > 100 µM; in experiment [6] it was > 100 µM. The same molecule gave a TGI in experiment [7] of 51.2 µM.

Take `CCCCCC/C=C1\CCC(CN2CCCC2)C1=O` (centres undefined): the TGI in experiment [1] turned out to be 18 µM; in experiment [2], 29.4 µM; in experiment [3], 25.5 µM; in experiment [4], 32.9 µM; in [5] it was 11.4 µM; in experiment [6], 25.6 µM. Moreover, the results for the TGI in experiment [8] and in experiment [7] were 42.2 µM and 31.4 µM, respectively.

Consider `CCOC(=O)c1[nH]c(Br)c(-c2ccc(Br)cc2)c1Br`, for which, in experiment [9], the GI50 is 97.9 nM; the TGI was 505 nM and 273 nM.

`CCOc1ccccc1NC(=O)CC1SC(=Nc2ccc([N+](=O)[O-])cc2)NC1=O` (centres undefined): the TGI in [1] worked out at 59 µM; in [2], 32 µM; in experiment [4], 51.1 µM; in experiment [5], 39.9 µM; in experiment [6], 64.4 µM; in experiment [7], 32.4 µM.

`COc1ccc2c(=O)c3ccoc3n(CC=C(C)C)c2c1`: the TGI in experiment [9] is > 100000 nM.

With `O=C(CC1(O)C(=O)Nc2c(Cl)ccc(Cl)c21)c1ccc2ccccc2c1` (centres undefined), the TGI in experiment [1] is 59 µM; in experiment [2] it was 19.2 µM; in [3], > 100 µM; in experiment [4] it was 37.2 µM; in [5], 21.8 µM; in experiment [6], 7.82 µM. The TGI in [7] turned out to be 25.4 µM.

As for `BrC1=CC=C2NC=CC3=CC=NC1C32` (centres undefined), the TGI was > 65.2 µM in experiment [1]; 58.1 µM in experiment [2]; > 92.5 µM in [3]; 66.8 µM in [4]; > 70 µM in experiment [5]; 30.1 µM in experiment [6]. Besides, the TGI in experiment [8] is > 100 µM; in experiment [7], 48 µM.

On to `O=[N+]([O-])c1nccn1CC(O)CN1CC1` (centres undefined), for which the TGI in experiment [1], in experiment [2], in [3], in experiment [4], in experiment [5] and in experiment [6] was > 100 µM each time. Moreover, the TGI in experiment [8] and in experiment [7] was > 100 µM throughout.

In the case of `CC(=O)[CH-]C(=O)c1ccccc1.CC(=O)[CH-]C(=O)c1ccccc1.CC(C)CCCC(C)[C@H]1CCC2[C@@H]3CC=C4C[C@@H]([O-])CC[C@]4(C)C3CC[C@@]21C.CC[O-].[Ti+4]` (some centres undefined), the GI50 in [1] was 93.7 µM; in [4], 76 µM; in experiment [5], 33.1 µM. Also, the TGI in experiment [1], in [4] and in [5] was > 100 µM each time.

In the case of `Oc1cc(O)c2c(-c3c(O)c(-c4ccc(O)c(O)c4)[o+]c4cc(O)cc(O)c34)c(O)c(-c3ccc(O)c(O)c3)[o+]c2c1`, the TGI in experiment [1] was > 100 µM; in [2], 92.8 µM; in experiment [3], > 100 µM; in [4], 36.4 µM; in experiment [5] it was > 100 µM; in [6], > 100 µM. The TGI in [8] was > 100 µM; in experiment [7], 87.6 µM.

Regarding `O=C1NC(=O)C2C(=O)NC(=O)C1C2(c1ccccc1)c1cc[nH]c1` (centres undefined), the TGI in experiment [1], in [2], in [3], in [5], in [6] and in [7] was > 100 µM in each case.

On to `CN(C)c1ccc([O][Bi]([Cl])[Cl])cc1`, for which the GI50 in experiment [1] was > 100 µM; in experiment [2], 87.9 µM; in experiment [3] it was > 100 µM; in experiment [4], > 100 µM; in [6], > 100 µM; in experiment [8], 30.7 µM. In addition, the GI50 in experiment [7] was 80.6 µM. Besides, the TGI in experiment [1], in experiment [2], in [3], in [4], in experiment [6] and in [8] was > 100 µM each time. In [7], the TGI was > 100 µM.

Take `CC(=O)[CH-]C(=O)c1ccccc1.CC(=O)[CH-]C(=O)c1ccccc1.CC1(C)C2CCC1(C)C([O-])C2.CC1(C)C2CCC1(C)C([O-])C2.[Ti+4]`: the GI50 in [1] was 29.2 µM; in experiment [4] it was 36.6 µM; in experiment [5], 23.7 µM; in experiment [6], 24.4 µM. Moreover, the TGI in [1], in experiment [4], in [5] and in experiment [6] was > 100 µM throughout.

`O=c1cc2ccccc2nn1Cc1cccc(Cl)c1`: the TGI in experiment [1], in experiment [2], in experiment [3], in experiment [4], in [6] and in experiment [8] was > 100 µM each time. Also, the TGI in experiment [7] was 94.5 µM.

Take `CCC1(c2c(F)c(F)c(N)c(F)c2F)CCC(=O)NC1=O` (centres undefined): the TGI in [1], in experiment [2], in experiment [3], in [4], in experiment [5] and in [6] was > 100 µM throughout. For the same molecule, the TGI in experiment [7] was > 100 µM.

Take `N#CC(C(=O)/C(=N/N)C(C#N)c1ccccc1)c1ccccc1` (centres undefined): the TGI in experiment [1], in experiment [2], in [4], in experiment [5], in [6] and in [8] was > 100 µM throughout. In addition, in [7], the TGI is > 100 µM.

Take `CCOC(=O)N1CCc2cc(OC)c(OC)c3c2c1cc1cc(OC)c(OC)cc13`: the TGI in [1] is > 100 µM; in experiment [2], 7.1 µM; in experiment [3] it was > 45.2 µM; in [4], > 100 µM; in experiment [5], > 100 µM; in [6], > 100 µM. Further, the TGI in experiment [9] was found to be 599 nM; in [8], 66 µM; in experiment [7] it was 69 µM.

`Cc1ccccc1C(=O)c1ccccc1O`: the TGI in experiment [1], in experiment [2], in experiment [3], in experiment [4], in experiment [5] and in experiment [6] was > 100 µM throughout. Also, the TGI in experiment [8] and in experiment [7] was > 100 µM throughout.

On to `COc1c(OC)c(OC)c2c(c1OC)c(=O)c1ccccc1n2C`, for which the TGI in experiment [9] was > 100000 nM.

As for `N/C(=C\c1ccc(OCc2ccccc2)c(OCc2ccccc2)c1[N+](=O)[O-])C(=O)O`, the TGI in experiment [1], in experiment [3], in experiment [4], in experiment [5] and in experiment [6] was > 100 µM each time.

As to `Clc1cc(Cc2cc(Cl)c(Cl)c3c2OCOC3)c2c(c1Cl)COCO2`, the TGI in experiment [1] was > 100 µM; in experiment [2], > 100 µM; in experiment [3] it was > 100 µM; in [4] it was 97.9 µM; in [5], > 100 µM; in [6] it was > 100 µM.

Take `N[C@@H]1CCCC[C@H]1N.O=C([O-])C(=O)[O-].[Pt+4]`: the GI50 in experiment [1] was 3.46 µM; in [4] it was 34.3 µM; in [5] it was 2.36 µM; in experiment [6] it was 1.18 µM. Further, the TGI in experiment [1], in experiment [4], in experiment [5] and in experiment [6] was > 100 µM in each case.

Regarding `CCC/C(=N/NC(=O)C(N)=O)C(CC)C(=O)CCC(=O)N(Cc1ccccc1)Cc1ccccc1` (centres undefined), the TGI in experiment [2], in experiment [3], in experiment [4], in experiment [5], in experiment [6] and in experiment [8] was > 100 µM in each case. For the same molecule, in experiment [7], the TGI is > 100 µM.

For `CC(=O)[CH-]C(=O)c1ccccc1.CC(=O)[CH-]C(=O)c1ccccc1.[Eu+3].[OH-].[OH3+]`, the GI50 in experiment [4], in [5] and in experiment [6] was > 100 µM each time. The TGI in [4], in experiment [5] and in experiment [6] was > 100 µM throughout.

On to `N#C/C(=C/c1ccc[nH]1)P(=O)(O)O`, for which the TGI in experiment [1], in experiment [2], in experiment [3], in experiment [5], in [6] and in experiment [7] was > 100 µM throughout.

On to `COC(=O)/C([Se]c1c(C)cc(C)cc1C)=C(\[Se]c1c(C)cc(C)cc1C)C(=O)OC`, for which the TGI in experiment [1], in experiment [2], in [3], in experiment [4], in [5] and in experiment [6] was > 100 µM each time. The TGI in experiment [8] was > 100 µM.

For `Oc1ccccc1C=NCc1ccco1`, the TGI in experiment [1], in experiment [2], in [4], in [5], in experiment [6] and in experiment [8] was > 100 µM throughout. Further, the TGI in experiment [7] is > 100 µM.

For `CC(C)c1ccc(C2C3=C(N=C4SCC(=O)N42)C(=O)c2ccccc23)cc1` (centres undefined), the TGI in [1], in [2], in experiment [3], in experiment [5], in experiment [6] and in [8] was > 100 µM each time. For the same molecule, in [7], the TGI is > 100 µM.

For the molecule `C[S+](C)CCOC(=O)C(=[N+]=[N-])c1ccc([N+](=O)[O-])cc1`, the TGI in experiment [2], in [3], in [4], in experiment [5], in experiment [6] and in experiment [8] was > 100 µM each time. In addition, the TGI in experiment [7] was > 100 µM.
